Assay results from patent US11584714B2 (priority 2018, dated 2023).
Counter-ions that a name gives are not always drawn. Like-named read-outs stand apart in the source and are kept apart here.

Legend:
Assay type in all cases: biochemical
[1] = biological target: MASP-2 (CCP1-CCP2-SP) (Homo sapiens (Human), UniProt O00187); test: biochemical; conditions: for MASP-2 vs. thrombin selectivity: selectivity for MASP-2 inhibition versus thrombin
[2] = biological target: mMASP-2 (Mus musculus (Mouse), UniProt Q91WP0); test: Enzymatic inhibition of mMASP-2
mMASP-2, sequence (Q91WP0 20-685): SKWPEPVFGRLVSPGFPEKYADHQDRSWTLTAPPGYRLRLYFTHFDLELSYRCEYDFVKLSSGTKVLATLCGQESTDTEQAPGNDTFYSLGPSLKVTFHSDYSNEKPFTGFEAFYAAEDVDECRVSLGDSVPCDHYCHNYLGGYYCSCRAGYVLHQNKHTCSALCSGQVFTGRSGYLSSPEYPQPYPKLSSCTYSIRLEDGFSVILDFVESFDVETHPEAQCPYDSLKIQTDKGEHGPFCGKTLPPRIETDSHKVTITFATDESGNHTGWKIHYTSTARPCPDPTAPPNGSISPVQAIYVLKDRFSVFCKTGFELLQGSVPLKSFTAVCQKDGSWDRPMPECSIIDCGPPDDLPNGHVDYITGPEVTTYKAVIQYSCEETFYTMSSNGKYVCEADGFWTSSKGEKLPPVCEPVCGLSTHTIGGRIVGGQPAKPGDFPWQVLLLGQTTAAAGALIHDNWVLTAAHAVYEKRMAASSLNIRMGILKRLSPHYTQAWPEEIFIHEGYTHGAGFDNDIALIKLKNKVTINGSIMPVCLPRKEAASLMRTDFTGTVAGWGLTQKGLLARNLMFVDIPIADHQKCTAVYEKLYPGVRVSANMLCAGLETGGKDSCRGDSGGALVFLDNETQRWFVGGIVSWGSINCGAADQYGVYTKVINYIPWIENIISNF

[3] = biological target: human α-thrombin (Homo sapiens (Human), UniProt P00734); test: Enzymatic assay for thrombin (Boc-VPR-AMC substrate)
[4] = system: Lectin Pathway; test: Lectin pathway activation assay in human serum (mannan-coated ELISA, C3c detection); conditions: 1% human serum

MASP-2 (CCP1-CCP2-SP), sequence (O00187 445-686): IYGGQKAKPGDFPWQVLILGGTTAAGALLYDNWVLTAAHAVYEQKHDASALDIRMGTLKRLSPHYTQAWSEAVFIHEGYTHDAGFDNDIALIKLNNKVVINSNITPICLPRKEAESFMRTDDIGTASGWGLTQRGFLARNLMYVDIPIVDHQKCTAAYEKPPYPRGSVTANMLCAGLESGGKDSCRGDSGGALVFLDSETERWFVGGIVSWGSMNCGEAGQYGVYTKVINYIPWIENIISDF

Row | SMILES | Ki ([1]; read-out: MASP-2 Ki) [nM] | MASP-2 vs. thrombin selectivity [1] | Ki ([2]; read-out: mMASP-2 Ki) [nM] | Ki ([3]; Thrombin Ki (μM)) [µM] | IC50 [4] [nM] | Ki ([3]; read-out: Thrombin Ki) [µM] | Ki [2] [nM] | Ki [1] [nM]
1 | Cc1nc(N)ccc1CNC(=O)[C@H](C)NC(=O)[C@H]1CN(Cc2ccccc2)CCN1 [compound 1347, (R)—N—((S)-1-(((6-Amino-2-methylpyridin-3-yl)methyl)amino)-1-oxopropan-2-yl)-4-benzylpiperazine-2-carboxamide Dihydrochloride] | < 500 | *** (≥25 to <100-fold) | < 500 | 0.5 to 2.5 | < 50 |  |  | 
2 | Cc1ccccc1CN1CCN[C@@H](C(=O)N[C@@H](C)C(=O)NCc2ccc(N)nc2C)C1 [compound 1348, (R)—N—((S)-1-(((6-Amino-2-methylpyridin-3-yl)methyl)amino)-1-oxopropan-2-yl)-4-(2-methylbenzyl)piperazine-2-carboxamide Dihydrochloride] | < 500 | *** (≥25 to <100-fold) | < 500 |  | < 50 | < 0.5 |  | 
3 | Cc1nc(N)ccc1CNC(=O)[C@H](C)NC(=O)[C@H]1C[C@H](Cc2ccc(Br)cc2)CN1 [compound 1350, (2R,4S)—N—((S)-1-(((6-Amino-2-methylpyridin-3-yl)methyl)amino)-1-oxopropan-2-yl)-4-(4-bromobenzyl)pyrrolidine-2-carboxamide Dihydrochloride] | < 500 | **** (≥100-fold) | < 500 | 2.5 to 10 | 500 to 5000 |  |  | 
4 | C[C@H](NC(=O)[C@@H](CCc1ccccc1)NCCc1cccc(OC(F)(F)F)c1)C(=O)NCc1ccc(C(=N)N)cc1 [compound 1352, (R)—N—((S)-1-((4-Carbamimidoylbenzyl)amino)-1-oxopropan-2-yl)-4-phenyl-2-((3-(trifluoromethoxy)phenethyl)amino)butanamide Di-trifluoroacetate salt] | < 500 | *** (≥25 to <100-fold) | < 500 | 0.5 to 2.5 | 50 to 500 |  |  | 
5 | Cc1nc(N)ccc1CNC(=O)[C@H](C)NC(=O)[C@H]1C[C@@H](Cc2ccccc2)CCN1 [compound 1353, (2R,4S)—N—((S)-1-(((6-Amino-2-methylpyridin-3-yl)methyl)amino)-1-oxopropan-2-yl)-4-benzylpiperidine-2-carboxamide Dihydrochloride] | < 500 | *** (≥25 to <100-fold) | < 500 |  | < 50 | < 0.5 |  | 
6 | Cc1nc(N)ccc1CNC(=O)[C@H](C)NC(=O)[C@H]1C[C@H](Cc2ccc(-c3nccs3)cc2)CN1 [compound 1361, (2R,4S)—N—((S)-1-(((6-Amino-2-methylpyridin-3-yl)methyl)amino)-1-oxopropan-2-yl)-4-(4-(thiazol-2-yl)benzyl)pyrrolidine-2-carboxamide Di-trifluoroacetate salt] | < 500 | **** (≥100-fold) | < 500 |  | < 50 | > 25 |  | 
7 | Cc1cc(Cl)cc(CNC(=O)[C@H](C)NC(=O)[C@H]2C[C@@H](Cc3ccccc3)CCN2)c1O [compound 1363, (2R,4S)-4-Benzyl-N-((S)-1-((5-chloro-2-hydroxy-3-methylbenzyl)amino)-1-oxopropan-2-yl)piperidine-2-carboxamide Hydrochloride] | < 500 | **** (≥100-fold) | < 500 | 2.5 to 10 | 50 to 500 |  |  | 
8 | Cc1cc(Cl)cc(CNC(=O)[C@H](C)NC(=O)[C@H]2C[C@H](Cc3ccc4ccccc4c3)CN2)c1O [compound 1370, (2R,4S)—N—((S)-1-((5-Chloro-2-hydroxy-3-methylbenzyl)amino)-1-oxopropan-2-yl)-4-(naphthalen-2-ylmethyl)pyrrolidine-2-carboxamide] | < 500 |  |  |  | 50 to 500 | > 25 | 500 to 2500 | 
9 | C[C@H](NC(=O)[C@H]1C[C@H](Cc2ccccc2)CN1)C(=O)NCc1cc(Cl)ccc1-n1cnnn1 [compound 1371, (2R,4S)-4-Benzyl-N-((S)-1-((5-chloro-2-(1H-tetrazol-1-yl)benzyl)amino)-1-oxopropan-2-yl)pyrrolidine-2-carboxamide Hydrochloride] | < 500 | −− (<1.0-fold) | 500 to 2500 |  | 50 to 500 | < 0.5 |  | 
10 | Cc1nc(N)ccc1CNC(=O)[C@H](C)NC(=O)[C@H]1C[C@H](Cc2ccccc2Br)CN1 [compound 1372, (2R,4S)—N—((S)-1-(((6-Amino-2-methylpyridin-3-yl)methyl)amino)-1-oxopropan-2-yl)-4-(2-bromobenzyl)pyrrolidine-2-carboxamide Di-trifluoroacetate salt] | < 500 | ** (≥5.0 to <25-fold) | < 500 |  | 50 to 500 | < 0.5 |  | 
11 | Cc1nc(N)ccc1CNC(=O)[C@H](C)NC(=O)[C@@H](CCc1ccccc1)NCc1ccc(Cl)cc1 [compound 1375, (R)—N—((S)-1-(((6-Amino-2-methylpyridin-3-yl)methyl)amino)-1-oxopropan-2-yl)-2-((4-chlorobenzyl)amino)-4-phenylbutanamide] |  | ** (≥5.0 to <25-fold) | 10000 to 25000 | 10 to 25 | 500 to 5000 |  |  | 500 to 2500
12 | C[C@H](NC(=O)[C@H]1C[C@H](Cc2ccc(C3CCC3)cc2)CN1)C(=O)NCc1cnc2[nH]cc(Cl)c2c1 [compound 1378, (2R,4S)—N—((S)-1-(((3-Chloro-1H-pyrrolo[2,3-b]pyridin-5-yl)methyl)amino)-1-oxopropan-2-yl)-4-(4-cyclobutylbenzyl)pyrrolidine-2-carboxamide Di-trifluoroacetate salt] | < 500 | * (≥1.0 to <5.0-fold) | < 500 | 0.5 to 2.5 | 500 to 5000 |  |  | 
13 | Cc1nc(N)ccc1CNC(=O)[C@H](C)NC(=O)[C@H]1C[C@H](Cc2ccc(C(C)(C)C)cc2)CN1 [compound 1380, (2R,4S)—N—((S)-1-(((6-Amino-2-methylpyridin-3-yl)methyl)amino)-1-oxopropan-2-yl)-4-(4-(tert-butyl)benzyl)pyrrolidine-2-carboxamide Dihydrochloride] |  | *** (≥25 to <100-fold) | < 500 |  | > 50000 | > 25 |  | 500 to 2500
14 | Cc1nc(N)ccc1CNC(=O)[C@H](CCC(N)=O)NC(=O)[C@H]1C[C@H](Cc2ccccc2)CN1 [compound 1382, (S)—NI-((6-Amino-2-methylpyridin-3-yl)methyl)-2-((2R,4S)-4-benzylpyrrolidine-2-carboxamido)pentanediamide Di-trifluoroacetate salt] | < 500 | *** (≥25 to <100-fold) |  |  | 5000 to 50000 | > 25 | 2500 to 10000 | 
15 | Cc1cc(C)c(O)c(CNC(=O)[C@H](C)NC(=O)[C@H]2C[C@H](c3ccccc3)CN2)c1 [compound 1383, (2R,4R)—N—((S)-1-((2-Hydroxy-3,5-dimethylbenzyl)amino)-1-oxopropan-2-yl)-4-phenylpyrrolidine-2-carboxamide Hydrochloride] |  |  | 2500 to 10000 |  | 5000 to 50000 | > 25 |  | 500 to 2500
16 | Cc1nc(N)ccc1CNC(=O)[C@H](C)NC(=O)[C@H]1Cc2c([nH]c3ccccc23)CN1 [compound 1389, (R)—N—((S)-1-(((6-Amino-2-methylpyridin-3-yl)methyl)amino)-1-oxopropan-2-yl)-2,3,4,9-tetrahydro-1H-pyrido[3,4-b]indole-3-carboxamide Hydrochloride] | < 500 | **** (≥100-fold) | 2500 to 10000 |  | 500 to 5000 | > 25 |  | 
17 | C[C@H](NC(=O)[C@H]1C[C@H](Cc2ccc3ccccc3c2)CN1)C(=O)NCc1cnc2[nH]cc(Cl)c2c1 [compound 1392, (2R,4S)—N—((S)-1-(((3-Chloro-1H-pyrrolo[2,3-b]pyridin-5-yl)methyl)amino)-1-oxopropan-2-yl)-4-(naphthalen-2-ylmethyl)pyrrolidine-2-carboxamide Di-Trifluoroacetate salt] | < 500 | *** (≥25 to <100-fold) | < 500 | 0.5 to 2.5 | 500 to 5000 |  |  | 
18 | Cc1nc(N)ccc1CNC(=O)[C@H](C)NC(=O)[C@H]1C[C@H](Cc2ccc(-c3ccc(F)cc3C(N)=O)cc2)CN1 [compound 1397, (2R,4S)—N—((S)-1-(((6-amino-2-methylpyridin-3-yl)methyl)amino)-1-oxopropan-2-yl)-4-((2′-carbamoyl-4′-fluoro-[1,1′-biphenyl]-4-yl)methyl)pyrrolidine-2-carboxamide Di-trifluoroacetate salt] | < 500 | **** (≥100-fold) | < 500 |  | 50 to 500 | > 25 |  | 
19 | Cc1nc(N)ccc1CNC(=O)[C@H](C)NC(=O)[C@H]1Cc2c(sc3ccccc23)CN1 [compound 1400, (R)—N—((S)-1-(((6-Amino-2-methylpyridin-3-yl)methyl)amino)-1-oxopropan-2-yl)-1,2,3,4-tetrahydrobenzo[4,5]thieno[2,3-c]pyridine-3-carboxamide Hydrochloride] | < 500 |  | 2500 to 10000 |  | 500 to 5000 | > 25 |  | 
20 | C[C@H](NC(=O)[C@H]1C[C@H](Cc2cccc3ccccc23)CN1)C(=O)NCc1cc(Cl)ccc1-n1cnnn1 [compound 1414, (2R,4S)—N—((S)-1-((5-Chloro-2-(1H-tetrazol-1-yl)benzyl)amino)-1-oxopropan-2-yl)-4-(naphthalen-1-ylmethyl)pyrrolidine-2-carboxamide Hydrochloride] | < 500 | −− (<1.0-fold) | < 500 |  | 50 to 500 | < 0.5 |  | 
